Measured values taken from patent publication US20060280725A1, “Compositions and methods of treating and diagnosing hepatoma” (priority 2003, published 2006).

Columns and labels:
hepatoma cells [1] = assay: Glutamine transport after siRNA1 treatment; type: cell-based, human
Procedure: (§1) FIG. 16. […] Panel C are photos from the experiment of panel B.
(§2) The physiological effects of downregulating ASCT2 expression by administration of siRNA1 in hepatoma cells were studied. Glutamine transport, which was measured as nanomoles of glutamine per milligram of total protein per 30s, was examined at 24 hours and at 48 hours in Lipofectamine treated cells and Lipofectamine+50 nM siRNA1. […] Cell counts were made at 48 hours of hepatoma cultures, each of which were started with the same number of viable cells, receiving either Lipofectamine™ 200 alone or Lipofectamine™ 200 plus siRNA1. After 48 hours, a 40% reduction in the number of cells that had received isRNA1 (which comprises SEQ ID NO:3) relative to control cells was observed.

ASCT2/ATB^0 RNA = assay: Northern blot analysis of ASCT2/ATB0 silencing in six human liver cancer cell lines; type: cell-based; conditions: 50 nM
Text: FIG. 17. […] Panel B are the phospho-imager quantification results of the blot shown in panel A (normalized to beta actin mRNA levels).
RNA was extracted from six (6) human liver cancer cell lines and subject to northern blot analysis using ASCT2/ATB^0 DNA as a probe. Actin RNA was probed as a baseline control. […] Those autoradiograms were subjected to phospho-imager quantitative analysis and normalized to actin RNA expression (FIG. 17, panel B). The designation “L” refers to Liopfectamine™ 200 alone, and “S” refers to Liopfectamine™ 200 plus siRNA at 50 nM.

hepatoma cells [2] = assay: Cell counts after siRNA1 treatment; type: cell-based, human
Procedure: as §1, §2

ASCT2 mRNA = assay: Northern blot analysis of ASCT2 mRNA after siRNA transfection; type: cell-based, human
Procedure: FIG. 15. […] B is the phospho-imager quantification of the bands in A. C is the concentration curve for siRNA1, showing that 50 nM is sufficient for maximum silencing of ASCT2 expression.
siRNAs that are specific to ASCT2 were designed using several known algorithms and then checked for specificity. Four (4) siRNAs, i.e., siRNA1 (which comprises SEQ ID NO:3), siRNA2 (which comprises SEQ ID NO:4), siRNA3 (which comprises SEQ ID NO:5), and siRNA4 (which comprises SEQ ID NO:6), were synthesized. SK-Hep cells were transfected with 50 nM concentration of any one of siRNA1, 2, 3 or 4 using Lipofectamine™ 2000 (Invitrogen™ life technologies) based on the protocols set forth in Gitlin, L., Karelsky, S., and Andino, R. (2002), Nature 418: 430-434; Yu, J. Y., DeRuiter, S. L., and Turner, D. L. (2002), Proc. Nat. Acad. Sci. USA 99:6047-6052; and “Transfecting siRNA into Mammalian Cells Using Lipofectamine™ 2000,” Form No. 18057N, Doc. Rev. 102802 by Invitrogen Corporation (2002), which are herein incorporated by reference. At 24 hours and at 48 hours, RNAs were extracted from the transfected cells and the expression of ASCT2 was examined by Northern blot analysis (see FIG. 15A).
Hepatoma cells were then treated with Lipofectamine™ 200 without siRNA1, with 12.5 nM, 25 nM, 50 nM or 100 nM siRNA1.

## siRNA1: siRNA specific to ASCT2, which comprises SEQ ID NO:3 (AGGAGGTGCTCGATTCGTT; listed as DNA, chemistry not given here; listed as Homo sapiens)
Hepatoma cells [1]; 50 nM, 24 and 48 hours, vs Lipofectamine alone, p<0.01
  reduction in glutamine transport relative to controls: greater than 50%
Hepatoma cells [1]; FIG. 16 panel A
  ASCT2 function (glutamine uptake): substantially decreases
ASCT2/ATB^0 RNA
  relative ASCT2/ATB^0 expression (normalized to actin RNA): significant reduction
Hepatoma cells [2]; FIG. 16 panel B
  cellular loss compared to transfection reagent alone: leads to cellular loss (death)
Hepatoma cells [2]; after 48 hours, vs Lipofectamine alone
  reduction in the number of cells relative to control cells: 40%
ASCT2 mRNA; SK-Hep, 50 nM siRNA, 24 and 48 hours
  relative effectiveness at reducing ASCT2 expression (mRNA relative to actin): most effective of the four siRNAs
ASCT2 mRNA; tested 12.5, 25, 50, 100 nM
  concentration sufficient for maximum silencing of ASCT2 expression: 50 nM
